Measurements: PubChem BioAssay (NCI)
Where “and” joins values, the source holds several entries; their conditions need not be identical. Identical values can stand only once.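 Cultured in 96-well plates, cells were exposed to test compound for 48 hours across five concentrations. Abbreviation: GI50, concentration required for 50% inhibition of growth. TGI marks complete inhibition of growth.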 *1 amine or outer side, *2 acyl side, *3 side chain or, on linkers, in order; H or OH if unused. Where a SMILES comes first, the peptide text is derived from it. Bridges are numbered along the chain shown (N, C = ends). Roman numbers before positions name the chains, in order. [ ]: non-standard residue; d: D form. Actinocin(9to1) = Cc1c2oc3c(C)ccc(C(=O)[*:1])c3nc-2c(C(=O)[*:2])c(N)c1=O; NMeF = CN[CH](Cc1ccccc1)C(=O)O; Sar = CNCC(=O)O

Legend:
Experiment in all cases: growth of human tumour cells (NCI), 48 h
[1] = tested on: SK-MEL-28 melanoma
[2] = tested on: T-47D breast
[3] = tested on: HS 578T breast
[4] = tested on: NCI-H226 lung
[5] = tested on: HT29 colon
[6] = tested on: UACC-62 melanoma
[7] = tested on: BT-549 breast
[8] = tested on: U251 CNS
[9] = tested on: PC-3 prostate
[10] = tested on: ACHN renal

| SMILES | GI50 [1] | TGI [1] | GI50 [2] | TGI [2] | GI50 [3] | TGI [3] | GI50 [4] | TGI [4] | GI50 [5] | TGI [5] | GI50 [6] | TGI [6] | GI50 [7] | TGI [7] | GI50 [8] | TGI [8] | GI50 [9] | TGI [9] | GI50 [10] | TGI [10] |
| --- | --- | --- | --- | --- | --- | --- | --- | --- | --- | --- | --- | --- | --- | --- | --- | --- | --- | --- | --- | --- |
| CCSc1ccc(C2C(Br)C(=O)N2c2cc(OC)c(OC)c(OC)c2)cc1 (configuration not stated) | 1.94 µM | 30 µM | 16.9 µM | 35.7 µM | 0.229 µM | > 100 µM | 3.11 µM | 43.5 µM | 0.351 µM | 12.3 µM | 0.0973 µM | 30 µM | 0.525 µM | 11.8 µM | 0.345 µM | 39.8 µM | 0.297 µM | > 100 µM | – | – |
| COc1cc(NC(=O)C2=C(N3CCOCC3)/C(=C/c3ccc(Cl)cc3)CC2)cc(OC)c1OC | > 100 µM | > 100 µM | > 100 µM | > 100 µM | 3.97 µM | 40.7 µM | 34.3 µM | > 100 µM | > 100 µM | > 100 µM | > 100 µM | > 100 µM | 25.5 µM | > 100 µM | 16.8 µM | 59.7 µM | 6.06 µM | > 100 µM | 16.9 µM | 61.8 µM |
| O=C(/C=C\c1ccccc1)N1CCc2ccccc2C1 | – | > 100 µM | – | > 100 µM | – | > 100 µM | – | > 100 µM | – | > 100 µM | – | > 100 µM | – | – | – | > 100 µM | – | > 100 µM | – | > 100 µM |
| O=S1Nc2c(Cl)cc(Cl)c(Cl)c2S1 (configuration not stated) | – | > 100 µM | – | – | – | – | – | > 100 µM | – | > 100 µM | – | > 100 µM | – | – | – | > 100 µM | – | – | – | > 100 µM |
| Cn1cccc1/C=C/c1cc(Br)c(/C=C/c2cccn2C)cc1Br | – | 31.5 µM | – | – | – | – | – | 39.5 µM | – | 41.5 µM | – | 43.1 µM | – | – | – | 28.6 µM | – | – | – | 26.1 µM |
| Cc1cccc2c(O)cc(=O)oc12 | – | > 100 µM | – | – | – | – | – | > 100 µM | – | > 100 µM | – | > 100 µM | – | – | – | > 100 µM | – | – | – | > 100 µM |
| CC(=O)[O-].O=C([CH-]C(=O)c1ccccc1)c1ccccc1.O=C([CH-]C(=O)c1ccccc1)c1ccccc1.[Sm+3] | 5.87 µM | 37.8 µM | – | – | – | – | 1.52 µM | 9.69 µM | 6.59 µM | 19 µM | 3.73 µM | 19.8 µM | – | – | 5.93 µM | 35.3 µM | – | – | 4.96 µM | 25.3 µM |
| Cc1c2oc3c(C)ccc(C(=O)NC4C(=O)NC(C(C)C)C(=O)N5CCCC5C(=O)N(C)CC(=O)N(C)C(Cc5ccccc5)C(=O)OC4C)c3nc-2c(C(=O)NC2C(=O)NC(C(C)C)C(=O)N3CCCC3C(=O)N(C)CC(=O)N(C)C(Cc3ccccc3)C(=O)OC2C)c(N)c1=O (configuration not stated) (I: TVP[Sar][NMeF] / II: TVP[Sar][NMeF]; ester I:1-I:C, II:1-II:C; linker I:N-II:N via Actinocin(9to1); configuration not given here) | – | 0.06 µM | – | < 0.01 µM and 0.0419 µM | – | < 0.01 µM and 0.0685 µM | – | – | < 0.01 µM and 0.00123 µM | – | < 0.01 µM and 0.00426 µM | < 0.01 µM and 0.0188 µM | – | 0.151 µM | < 0.01 µM and 0.0022 µM | < 0.0435 µM and 0.159 µM | – | 0.0325 µM and 0.142 µM | – | > 1 µM |
| CCC[CH2][Sn]1([CH2]CCC)[O]CC(C)[O]1 (configuration not stated) | 2.24 µM | 3.96 µM | – | – | – | – | 2.11 µM | 4.62 µM | 1.74 µM | 3.44 µM | 1.31 µM | 2.91 µM | – | – | 1.39 µM | 2.72 µM | – | – | 1.54 µM | 2.89 µM |
| C/C=N\N1C(=O)c2ccccc2C1=O | – | > 100 µM | – | – | – | – | – | > 100 µM | – | > 100 µM | – | > 100 µM | – | – | – | – | – | – | – | > 100 µM |
| COc1cccc2c1n([O-])c1cccc(OC)c1[n+]2=O | – | – | 2.39 µM | 10.3 µM | 8.87 µM | 60.1 µM | 6.1 µM | 28.8 µM | – | – | 9.22 µM | 27.4 µM | 8.1 µM | 21.8 µM | 10.4 µM | 48.2 µM | 7.76 µM | 35.3 µM | 4.35 µM | > 100 µM |
| O=NN(CCCl)C(=O)NC1CCC(CC2CCC(NC(=O)N(CCCl)N=O)CC2)CC1 (configuration not stated) | – | > 100 µM | – | – | – | – | – | > 100 µM | – | > 100 µM | – | – | – | – | – | 46.2 µM | – | – | – | > 100 µM |
| O=C(CCCCC(=O)N/N=C\c1ccccc1O)N/N=C\c1ccccc1O | – | – | – | – | 15.2 µM | > 100 µM | 3.12 µM | > 100 µM | > 100 µM | > 100 µM | 2.5 µM | > 100 µM | 32 µM | > 100 µM | 3.09 µM | > 100 µM | 5.65 µM | > 100 µM | 3.53 µM | > 100 µM |
| Cn1c(=O)c2/c(n(C)c1=O)=N\C=c1\c(=O)n(C)c(=O)n(C)\c1=N\C=2 | – | > 100 µM | – | – | – | – | – | – | – | > 100 µM | – | > 100 µM | – | – | – | > 100 µM | – | – | – | > 100 µM |
| CN(C)CC/C(=N\Nc1ccc(Cl)cc1Cl)c1ccccc1 | – | 28.5 µM | – | – | – | – | – | – | – | 28.9 µM | – | 27.7 µM | – | – | – | 24.8 µM | – | – | – | 29.4 µM |
| Oc1c(CN2CCN(c3ccccc3)CC2)cc(Br)c2cccnc12 | – | > 100 µM | – | > 47.3 µM | – | > 88.6 µM | – | – | – | > 95.8 µM | – | – | – | > 100 µM | – | 7.87 µM | – | 32.5 µM | – | > 34.4 µM |
| Brc1cc2c(cc1Br)CN(c1ccccc1)C2 | – | > 100 µM | – | – | – | – | – | > 100 µM | – | > 100 µM | – | > 100 µM | – | – | – | > 100 µM | – | – | – | > 100 µM |
| CCc1cccc(C)c1NC(=O)CC1C(=O)Nc2ccccc2S1(=O)=O (configuration not stated) | – | 48.1 µM | – | – | – | – | – | > 100 µM | – | 36.4 µM | – | 41.1 µM | – | – | – | 32.5 µM | – | – | – | 47.4 µM |
| NNC(=O)C(=O)N/N=C(\CCC(=O)Nc1ccc(Cl)cc1)Cc1nc2ccccc2s1 | – | > 100 µM | – | – | – | – | – | > 100 µM | – | > 100 µM | – | 54.3 µM | – | – | – | > 100 µM | – | – | – | > 100 µM |
| N.N.O=P([O-])([O-])C1(P(=O)([O-])[O-])CCCCCN1.[Pt+2] | > 100 µM | > 100 µM | – | – | – | – | > 100 µM | > 100 µM | > 100 µM | > 100 µM | > 100 µM | > 100 µM | – | – | 43.5 µM | > 100 µM | – | – | > 100 µM | > 100 µM |
| CC(=O)[CH-]C(C)=O.CC(=O)[CH-]C(C)=O.CC[O-].CC[O-].[Ti+4] | > 100 µM | > 100 µM | – | – | – | – | > 100 µM | > 100 µM | > 100 µM | > 100 µM | > 100 µM | > 100 µM | – | – | > 100 µM | > 100 µM | – | – | > 100 µM | > 100 µM |
